Test results reported in patent US5378689A, “Peptides having renin inhibitory activity, their preparation and use” (Sankyo Company, Limited, priority 1989, dated 1995).

Each molecule was assayed against T1, human renin (Homo sapiens, UniProt P00797) (assay: Inhibition of renin activity (human renin, sheep angiotensinogen, remaining angiotensin I assayed)). Conditions: 1×10^-7 M test compound, pH 7.3, 37° C., 10 minutes, mean of 3 or 4 experiments.
T1 sequence (P00797 67-406): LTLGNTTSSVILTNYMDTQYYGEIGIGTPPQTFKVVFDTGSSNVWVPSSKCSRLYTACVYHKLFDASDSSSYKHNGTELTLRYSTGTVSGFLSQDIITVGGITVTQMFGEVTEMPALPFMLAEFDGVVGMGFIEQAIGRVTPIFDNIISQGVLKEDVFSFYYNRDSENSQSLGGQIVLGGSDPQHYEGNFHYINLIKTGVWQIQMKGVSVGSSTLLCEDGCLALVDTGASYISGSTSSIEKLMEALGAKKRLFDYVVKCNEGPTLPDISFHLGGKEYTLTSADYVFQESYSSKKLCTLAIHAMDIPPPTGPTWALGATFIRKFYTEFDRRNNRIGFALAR
Type: biochemical
Protocol: The ability of various compounds of the invention to inhibit the activity of renin was determined according to the following method, which follows essentially the procedure of Kokubu et al. [Hypertension, 5, 191-197 (1983)].
Specifically, each test compound was dissolved in 60% v/v aqueous ethanol. Human renin activity in the presence and absence of each compound was measured using sheep angiotensinogen. The total volume of 1 ml of assay mixture contained 0.1 mole/liter phosphate buffer (pH 7.3), human renin (equivalent to 0.5 ng angiotensin I per ml per minute), sheep angiotensinogen (equivalent to 200 ng angiotensin I), 1×10^-7 M of the test compound, 6% v/v ethanol and angiotensinase inhibitors (10 mmole/liter sodium ethylenediaminetetraacetate and 3.4 mmole/liter 8-hydroxyquinoline). The mixture was allowed to react for 10 minutes at 37° C., and then the reaction was stopped by placing the reaction tube in a boiling water bath for 5 minutes. The mixture was then centrifuged and the supernatant (0.05-0.1 ml) was used to assay remaining angiotensin I.
An identical experiment was carried out, as a control, except that the test compound was omitted. From the values obtained were calculated the % inhibition of renin activity achieved by each test compound. The results are shown in the following Table 2, in which the compounds of the invention are identified by the numbers of the Examples given hereafter in which are described their preparation. The values given are the mean of 3 or 4 experiments.
`CCCCNC(=O)[C@@H](C[C@H](O)[C@H](CC1CCCCC1)NC(=O)[C@H](Cc1cscn1)NC(=O)[C@@H](CC(=O)N1CCOCC1)Cc1ccc(OC)cc1)C(C)C` [Example 4] was tested, and the “Inhibitory activity (%) Against Human Renin (1 × 10^-7 M)” value was 96.9%.
`CCCCNC(=O)[C@H](C)C[C@H](O)[C@H](CC1CCCCC1)NC(=O)[C@H](Cc1cscn1)NC(=O)[C@@H](CC(=O)N1CCOCC1)Cc1ccccc1` [Example 6] was tested, and the “Inhibitory activity (%) Against Human Renin (1 × 10^-7 M)” value was 96.1%.
`CNC(=O)[C@H](C)C[C@H](O)[C@H](CC1CCCCC1)NC(=O)[C@H](Cc1cscn1)NC(=O)[C@@H](CC(=O)N(C)Cc1ccccc1)Cc1ccccc1` [Example 14, (2R, 4S, 5S )-5-{N-[2(R)-Benzyl-3-(N-benzyl-N-methylaminocarbonyl)propionyl]-3-(4-thiazolyl)-L-alanyl}-amino-6-cyclohexyl-4-hydroxy-2,N-dimethylhexanamide] was tested, and the “Inhibitory activity (%) Against Human Renin (1 × 10^-7 M)” value was 95.7%.
With `CCCCNC(=O)[C@H](C)C[C@H](O)[C@H](CC1CCCCC1)NC(=O)[C@H](Cc1cscn1)NC(=O)[C@@H](CC(=O)N(C)Cc1ccccc1)Cc1ccccc1` [Example 8, (2R, 4S, 5S)-5-{N-[2(R)-Benzyl-3-(N-benzyl-N-methylaminocarbonyl)propionyl]-3-(4-thiazolyl)-L-alanyl}-amino-N-butyl-6-cyclohexyl-4-hydroxy-2-methylhexanamide] the “Inhibitory activity (%) Against Human Renin (1 × 10^-7 M)” value was 96.2%.

Same assay, conditions: 1×10^-7 M test compound, pH 7.3, 37° C., 10 minutes, mean of 3 or 4 experiments, read-out: Inhibitory activity (%) Against Human Renin (1 × 10^-7 M)
Molecule `CCCCNC(=O)[C@@H](C[C@H](O)[C@H](CC1CCCCC1)NC(=O)[C@H](Cc1cscn1)NC(=O)[C@@H](CC(=O)N(C)Cc1ccccc1)Cc1ccccc1)C(C)C` [Example 16, (2S, 4S, 5S)-5-{N-[2(R)-Benzyl-3-(N-benzyl-N-methylaminocarbonyl)propionyl]-3-(4-thiazolyl)-L-alanyl}amino-N-butyl-6-cyclohexyl-4-hydroxy-2-isopropylhexanamide] has an inhibition at 0.1 µM of 94.8%.
`CNC(=O)[C@@H](C[C@H](O)[C@H](CC1CCCCC1)NC(=O)[C@H](Cc1cscn1)NC(=O)[C@@H](CC(=O)N1CCOCC1)Cc1ccc(OC)cc1)C(C)C` [Example 3, (2S, 4S, 5S)-5-{N-[2(R)-(4-Methoxybenzyl)-3-(morpholinocarbonyl)propionyl]-3-(4-thiazolyl)-L-alanyl}amino-6-cyclohexyl-4-hydroxy-2-isopropyl-N-methylhexanamid] was tested, and the inhibition at 0.1 µM was 93.1%.
`CCCCNC(=O)[C@H](C)C[C@H](O)[C@H](CC1CCCCC1)NC(=O)[C@H](Cc1cscn1)NC(=O)[C@@H](CC(=O)N(C)Cc1ccccc1)Cc1ccc(OC)cc1` [Example 11, (2R, 4S, 5S)-N-Butyl-6-cyclohexyl-4-hydroxy-5-{N-[2(R)-(4-methoxybenzyl)-3-(N-benzyl-N-methylaminocarbonyl)-propionyl]-3-(4-thiazolyl)-L-alanyl}amino-2-methylhexanamide] showed an inhibition at 0.1 µM of 91.6%.
Work on `CNC(=O)[C@H](C)C[C@H](O)[C@H](CC1CCCCC1)NC(=O)[C@H](Cc1cscn1)NC(=O)[C@@H](CC(=O)N1CCOCC1)Cc1ccccc1` [Example 5, (2R, 4S, 5S)-5-{N-[2(R)-Benzyl-3-(morpholinocarbonyl)-propionyl]-3-(4-thiazolyl)-L-alanyl}amino-6-cyclohexyl-4-hydroxy-2,N-dimethylhexanamide] yielded an inhibition at 0.1 µM of 95.6%.
With `CNC(=O)[C@@H](C[C@H](O)[C@H](CC1CCCCC1)NC(=O)[C@H](Cc1cscn1)NC(=O)[C@@H](CC(=O)N1CCOCC1)Cc1ccccc1)C(C)C` [Example 1, (2S, 4S, 5S)-5-{N-[2(R)-Benzyl-3-(morpholinocarbonyl)-propionyl]-3-(4-thiazolyl)-L-alanyl}amino-6-cyclohexyl-4-hydroxy-2-isopropyl-N-methylhexanamide] the inhibition at 0.1 µM was 95.2%.
`CCCCNC(=O)[C@@H](C[C@H](O)[C@H](CC1CCCCC1)NC(=O)[C@H](Cc1cscn1)NC(=O)[C@@H](CC(=O)N1CCOCC1)Cc1ccccc1)C(C)C` [Example 2, (2S, 4S, 5S)-5-{N-[2(R)-Benzyl-3-(morpholinocarbonyl)-propionyl]-3-(4-thiazolyl)-L-alanyl}amino-N-butyl-6-cyclohexyl-4-hydroxy-2-isopropylhexanamide] was tested, and the inhibition at 0.1 µM was 96%.
